Results: EP0771560A1, “Use of 2- N-(1,2-benzoisothiazolyl-3(2H)one-1,1-dioxide ethyl 5-ethoxycarbonyl-2,4,6-trimethyl-1,4-dihydropiridine-3-carboxylate in the treatment of vascular disorders” (LABORATORIOS ALTER, S.A., priority 1995, dated 1997)
Read-outs that look alike come from different tables or passages of the source.

What was measured:
[1] = test system: smooth muscle cells; conditions: from J. Bernhardt et al. (1993); cited from earlier work
[2] = test system: A10 cells; experiment: Inhibition of smooth muscle cell proliferation induced by bovine fetal serum (DNA synthesis by inclusion of BrdU); format: cell-based, rat; conditions: for inhibition at 50 µM / inhibition at 0.5 µM / inhibition at 5 µM: Rattus norvegicus; for % LABELED CELLS (Average ± S.D.): 10% bovine fetal serum, BrdU inclusion
Protocol: In these experiments a rat aorta smooth muscle cell line obtained from American Type Culture Collection (ATCC;A10 CRL 1476) was used. The cells were grown in a humidified atmosphere (37^º C; 95% air - 5% CO2) in Dulbecco's Modified Eagle Medium (DMEM) containing 10 % bovine fetal serum supplemented with 20 mM L-glutamine, 100 IU/ml penicillin, 100 µg/ml streptomycin and 0.25 µg/ml Amphotericin B (antibiotic-antimycotic solution, Gibco). The medium was replaced every two days.
To study the effect of PCA-4230 and of the other compounds, the DNA synthesis was measured by deterimining the inclusion of BrdU (an analogue of thymidine). The cells were isolated by trypsinization (trypsin 0.05% in EDTA 0.02%) and were seeded on glass cover-glasses in culture plates of 24 cups, at a density of 10^4 cells per cup. The cells were grown for 24 hours in DMEM with 10% BFS to allow adhesion of the cells to the slides. Afterwards, the cells were washed with serum-free DMEM containing 0.2% bovine serum albumin (BSA). They were incubated for 48 hours in the same medium to obtain quiescent cells. Afterwards, proliferation was induced by replacement of the medium by DMEM containing 10% bovine fetal serum, along with the vehicle or drugs at the suitable concentrations (0.5 to 50 µM for PCA-4230 and 50 µM for the rest of the compounds): The cells were grown in these conditions for 16 hours and, afterwards, BrdU was added and the culture was continued for two to three hours.

[3] = Phase II Clinical Trial, Internal Report; result in words; cited from earlier work
[4] = test system: atheromatous smooth muscle cells (ASA); experiment: Intracellular communication: transference of Lucifer Yellow dye after microinjection, atheromatous cells; format: cell-based, human; conditions: 0.4 µM (200 ng/ml for PCA-4230), incubated for 1 hour
Description: (§1) Materials and Methods. Non-arteriosclerotic aorta smooth muscle cells (NASA), obtained from biopsies of organs to be used in heart transplants were used. The atheromatous smooth muscle cells (ASA) were obtained from biopsies obtained from arteriosclerotic arteries coming from aorta reconstruction. These biopsies were used as a source for cultures by explant, avoiding the use of enzymatic additives or detergents. The cells were left to grow until confluence, in M199 medium, supplemented with 5% BFS and antibiotics as in the previous example. The pureness of the cultures was determined by specific staining of the same with anti-α actin of smooth muscle cells.
(§2) Intracellular communication was studied by evaluating the transference of the fluorescent dye Lucifer Yellow from a single cell, in which it is inserted by microinjection, to the surrounding cells. The extent of this transference of dye was determined in 40 normal cells and in 100 atheromatous cells.
(§3) The same experiment was carried out with Verapamyl 0.4 µM, used as a standard drug with calcium antagonist activity and with 0.02% dimethylsulfoxide, the vehicle used in both cases.
(§4) The same study was repeated with the vehicle and with Verapamyl.

[5] = test system: gap junctions; experiment: Freeze Fracture Electron Microscopy (FFEM) of gap junction morphology; format: cell-based, human; conditions: cells treated with PCA-4230, result in words
Description: Subsequently, the cells were fixed with glutaraldehyde and were studied by FFEM "Freeze Fracture Electron Microscopy" to determine the morphology of the gap junctions. The cells were frozen at -110^º C and were fractured. The breakage planes are the planes with less resistance that correspond to the surface of the inside membrane, between lipid bilayers.

[6] = test system: c-fos and c-jun proto-oncogenes; experiment: Expression of c-fos and c-jun proto-oncogenes (Northern hybridization of total RNA) in serum-stimulated cells; format: cell-based, rat; conditions: 5x10^-5M; cells stimulated for 30 minutes with 10% FCS; result in words
Protocol: The expression of the c-fos and c-jun proto-oncogenes was analyzed in cells fasted for 48h (cultured in serum-free DMEM, containing BSA 0.2%) and subsequently stimulated for 30 minutes with 10% FCS in the presence of absence of PCA-4230 (5x10^-5M). The total RNA was extracted from said cells using a previously described method (P Chomczynski and N. Sacchi (1987), Ann. Biochem. 162: 156-159).
Immediately, the extracted RNA (10 µg) was resolved by eletrophoresis in agarose gel (1.2% agarose + formaldehyde + formamide). The gel was then transferred to a nylon membrane and this was hybridized with specific probes for c-fos and c-jun (previously labeled with [^32P]-deoxy CTP). The membrane was finally exposed to a sensitive film (Kodak X-OMAT) for 8-17 hours at -70^º C. The level of expression of the oncogenes was brought back to normal by using a specific probe for β-actin.

[7] = test system: Non-arteriosclerotic aorta smooth muscle cells (NASA); experiment: Intracellular communication: transference of Lucifer Yellow dye after microinjection, normal cells; format: cell-based, human; conditions: NORMAL (HEALTHY) cells, 0.4 µM, incubated for 1 hour
Description: as §1, §2, §3, §4

[8] = Table Ib, 50,0 µM/L, two experiments in triplicate
[9] = Table Ib, 50,0 µM/L, versus vehicle
[10] = A10, Table Ib, 50,0 µM/L, versus vehicle, read-out: % INHIBITIÓN

Compound: CC(=O)Oc1ccccc1C(=O)O [ASPIRIN, aspirin, reference compound]
- aspirin concentrations at which inhibition of the proliferation of smooth muscle cells is achieved [1]: higher than 270 µM
- inhibition at 50 µM ([2]; A10, read-out: % INHIBITIÓN): 25.5%
- % LABELED CELLS (Average ± S.D.) [2, 8]: 22.2 ± 1,8%
- % INHIBITIÓN [2, 9]: weak inhibitory effect

Compound: CCOC(=O)C1=C(C)NC(C)=C(C(=O)OCCN2C(=O)c3ccccc3S2(=O)=O)C1C (stereo not drawn) [PCA-4230]
- hypolipidemic effect [3]: moderate hypolipidemic effect
- N° CELLS LABELED BY INJECTION [4]: 2.42 ± 0.34
- morphology, distribution and number of the gap junctions [5]: No differences were observed
- transcription of the c-fos and c-jun proto-oncogenes [6]: suppressive effect
- N° CELLS LABELED BY INJECTION [7]: 2,40 ± 0,18
- cell proliferation induced by bovine fetal serum ([2]; 0.5 to 50 µM, result in words): inhibited cell proliferation induced by bovine fetal serum proportionally to the concentration
- inhibition at 0.5 µM ([2]; A10, Table Ia, 0,5 µM/L, versus vehicle, read-out: % INHIBITIÓN): 26.1%
- inhibition at 5 µM ([2]; A10, Table Ia, 5,0 µM/L, versus vehicle, read-out: % INHIBITIÓN): 53.2%
- inhibition at 50 µM ([2]; A10, Table Ia, 50,0 µM/L, versus vehicle, read-out: % INHIBITIÓN): 95.1%
- inhibition at 0.5 µM ([2]; A10, Table Ib, 0,5 µM/L, versus vehicle, read-out: % INHIBITIÓN): 25%
- inhibition at 5 µM ([2]; A10, Table Ib, 5,0 µM/L, versus vehicle, read-out: % INHIBITIÓN): 57.4%
- inhibition at 50 µM [2, 10]: 87.9%
- % LABELED CELLS (Average ± S.D.) ([2]; Table Ia, 0,5 µM/L, three experiments in triplicate): 15,0 ± 2,3%
- % LABELED CELLS (Average ± S.D.) ([2]; Table Ia, 5,0 µM/L, three experiments in triplicate): 9,5 ± 1,1%
- % LABELED CELLS (Average ± S.D.) ([2]; Table Ia, 50,0 µM/L, three experiments in triplicate): 1,0 ± 0,6%
- % LABELED CELLS (Average ± S.D.) ([2]; Table Ib, 0,5 µM/L, two experiments in triplicate): 22,3 ± 0,9%
- % LABELED CELLS (Average ± S.D.) ([2]; Table Ib, 5,0 µM/L, two experiments in triplicate): 12,7 ± 1,4%
- % LABELED CELLS (Average ± S.D.) [2, 8]: 3,6 ± 0,3%

Compound: Clc1ccccc1CN1CCc2sccc2C1 [THICLOPYD., Thiclopydine, reference compound]
- inhibition at 50 µM [2, 10]: 17.1%
- % LABELED CELLS (Average ± S.D.) [2, 8]: 24,7 ± 1,5%
- % INHIBITIÓN [2, 9]: weak inhibitory effect

Compound: COc1ccc(CCN(C)CCCC(C#N)(c2ccc(OC)c(OC)c2)C(C)C)cc1OC (stereo not drawn) [VERAPAMYL, Verapamyl, reference compound]
- N° CELLS LABELED BY INJECTION [4]: 7,20 ± 0,54
- N° CELLS LABELED BY INJECTION ([4]; listed as Verapamyl): did not show any significant effects
